Measured values reported in article PMC6923382, “Small molecules that inhibit TNF signalling by stabilising an asymmetric form of the trimer” (Nature Communications, 2019).
Values joined by “and” are separate entries in the source; they are usually repeats but may differ in a detail not shown here. Equal entries are not always repeated.

Experiments:
TNF [1] = target: T1, TNF (Homo sapiens, UniProt P01375); experiment: TNF reporter gene assay HEK-293, human TNF; assay type: cell-based; parameters: stabilise an asymmetrical form of the soluble TNF trimer
Method: Stimulation of HEK-293 cells by TNF leads to activation of the NF-κB pathway. The HEK-Blue^TM CD40L SEAP (secreted embryonic alkaline phosphatase) reporter cell line used to determine TNF activity (InvivoGen, #hkb-CD40, cells were described as mycoplasma free when purchased and were tested using Mycoalert [Lonza] after each batch of assay vial preparation). […] Cells were added to the compound/stimulus mixture and further incubated for 18 h. SEAP was measured using the colorimetric substrate HEK-Blue Detect^TM or QUANTI-Blue^TM from InvivoGen. […] The IC50 was determined as the point of inflexion between the fitted minimum and maximum of the compound dose response curve, calculated using 4PL fitted curve. Mean IC50s are reported as a mean of at least two experiments.
Target sequence in this assay (P01375 77-233 limits assumed): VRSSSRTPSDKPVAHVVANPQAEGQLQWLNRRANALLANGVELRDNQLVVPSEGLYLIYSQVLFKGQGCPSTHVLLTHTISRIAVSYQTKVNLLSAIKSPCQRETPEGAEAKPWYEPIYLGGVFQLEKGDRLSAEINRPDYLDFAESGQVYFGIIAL

[2] = test system: TNFR1 signalling complex (RIP-1, pNF-κB); experiment: TNFR1 immunoprecipitation and signalling assay (Jurkat cells); assay type: cell-based, human; conditions: 10 µM compound pre-incubated 1 h with TNF 25 ng/mL, Western blot
Method: Cells were then lysed for 1 h in cold lysis buffer (1% NP-40, 150 mM NaCl, 50 mM Tris pH 8.0, 25 mM NaF, 1 mM vanadate, 1% phosphatase inhibitor and 0.2% protease inhibitor cocktail), and cell supernatant harvested. TNFR1 immunoprecipitation was performed by incubating supernatant with 5 µg anti-TNFR1 antibody (R&D systems, #AB-225-PB) overnight while rotating at 4 °C, followed by the addition of 20 µL protein G sepharose beads for 1 h rotating at 4 °C. An isotype control sample was incubated with 5 µg goat IgG, instead of anti-TNFR1 antibody to assess how much unspecific binding to the beads occurs during immunoprecipitation. Beads were subsequently washed 3× in lysis buffer, and then the supernatant removed and SDS-PAGE reducing sample buffer added to beads and samples boiled for 10 min. Sample (15 µL) was then loaded on a 4–12% Bis-Tris gel and run for 65 min at 200 V in MOPS buffer. […] RIP-1 ubiquitination (1:250 dilution, BD, #610459) was then detected by Western blotting using anti-mouse-HRP (1:2000 dilution, Cell Signalling Technology, #7076). pNFκB (1:1000 dilution, Cell Signalling Technology, #3033) and GAPDH (1:4000 dilution, Cell Signalling Technology, #5174) were measured in the total cell lysates by Western blotting using anti-rabbit HRP (1:2000 dilution, Cell Signalling Technology, #7074). […]

Balb/c mice (CAIA model) = experiment: Collagen antibody induced arthritis (CAIA) model; assay type: in vivo, mouse; parameters: key to Daily arthritis score: 0 = no arthritis, 3 = wrist/ankle, pad and digits affected; conditions: Ab501 i.v. then s.c.; for Daily arthritis score: individual mice, UCB-9260 150 mg/kg po bid
Method: Ab501 (in-house anti-mouse TNF antibody, […]) was administered intravenously 6 h post-LPS administration followed by three further doses administered subcutaneously at 48-h intervals. Animals were scored for signs of arthritis and weighed daily. The following scoring system was used for signs of arthritis: 0-no arthritis, 1-wrist/ankle affected, 2-wrist/ankle and pad affected and 3-wrist/ankle, pad, and digits affected. Data shown as the mean ± standard error of arthritis clinical score for the treatment group. Statistical significance (*p < 0.05, **p < 0.01) was determined using one-way ANOVA with Dunnett’s multiple comparison test.

TNF [3] = target: T1, TNF; experiment: Human TNF induced neutrophil recruitment in vivo; parameters: stabilise an asymmetrical form of the soluble TNF trimer; conditions: for CD45+ GR-1+ cells/mL in the peritoneal cavity: human TNF, individual mice
Method: All in vivo studies were reviewed by an internal Ethical Review Body (ERB) and conducted in accordance with the Animals (Scientific Procedures) Act 1986, EU Directive 2010/63/EU. […] Anti-TNFα biologics, CDP571[21] (10 mg/kg) and etanercept (30 mg/kg), diluted in PBS, were dosed intravenously prior to human and mouse TNF challenge. Two hours after the TNF challenge, mice were sacrificed and the peritoneal cavity lavaged with 3 mL of FACS buffer. An aliquot (0.3 mL) of lavage fluid was used to assess the number CD45^+GR1^+ cells by flow cytometry. Briefly, the cells were treated with ACK lysis buffer, washed and suspended in FACS buffer prior to staining with FITC anti-mouse CD45 and PE anti-mouse GR1. Data are shown as mean ± standard error of the number of CD45^+GR-1^+ cells. Statistical significance (*p < 0.05, **p < 0.01, ****p < 0.0001) was determined using one-way ANOVA with Dunnett’s multiple comparison test.
Target sequence in this assay (P01375 77-233 limits assumed): as above

Mouse free fraction = assay type: in vitro ADME; conditions: read-out: Mouse free fraction (Fu)
TNF [4] = target: T1, TNF; experiment: Biacore kinetics of binding; parameters: Human TNF (CID2043, UniProt P01375 residues 77–233); 6XHis-Smt3 (N, cleaved yes); host or cells: E. coli TOP10; conditions: SPR single-cycle; linked TNF with n-terminal HKH tag; read-out: KD
Method: Surface plasmon resonance using a Biacore T100/T200 was used to measure the association rate constant (ka), the dissociation rate constant (kd) and the affinity (KD) of compounds. TNF (VCID 2043 Beryllium) was immobilised to approximately 5 kRU as described above and equilibrated for at least 5 h in HBS P + buffer with 5% DMSO. UCB-6876 was serially diluted from 187.5 µM, flowing over the immobilised TNF at 50 µL/min for 3 min before allowing full dissociation under flow for at least 6 min. […] […] The compounds were allowed to dissociate for 2 h under flow.
Target sequence in this assay (P01375 with tags, fused parts or gaps): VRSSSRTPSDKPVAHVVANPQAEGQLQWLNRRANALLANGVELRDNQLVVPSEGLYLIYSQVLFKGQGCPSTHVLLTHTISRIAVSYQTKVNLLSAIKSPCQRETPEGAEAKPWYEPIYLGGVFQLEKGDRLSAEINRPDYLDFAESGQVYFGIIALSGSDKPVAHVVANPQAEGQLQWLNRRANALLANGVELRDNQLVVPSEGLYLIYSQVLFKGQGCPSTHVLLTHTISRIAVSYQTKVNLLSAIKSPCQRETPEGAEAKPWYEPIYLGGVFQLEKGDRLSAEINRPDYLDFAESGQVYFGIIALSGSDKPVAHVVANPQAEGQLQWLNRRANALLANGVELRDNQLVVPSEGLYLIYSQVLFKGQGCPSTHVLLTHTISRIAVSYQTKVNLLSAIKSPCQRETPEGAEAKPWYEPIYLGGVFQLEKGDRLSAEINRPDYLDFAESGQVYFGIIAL

Cc1ccc(C)c(Cn2c(C(O)c3ccncc3)nc3ccc(-c4cnn(C)c4)cc32)c1 (stereo not shown) [UCB-9260]
IC50 (TNF [1]): 202 nM
inhibition of wild-type TNF (TNF [1]; 10 pM wild-type TNF, HEK NFκΒ reporter): inhibited
RIP recruitment to TNFR signalling complex and phosphorylation of NF-κB [2]: markedly reduced
Daily arthritis score (Balb/c mice (CAIA model); Day 0): 0
Daily arthritis score (Balb/c mice (CAIA model); Day 1): 0
Daily arthritis score (Balb/c mice (CAIA model); Day 2): 0
Daily arthritis score (Balb/c mice (CAIA model); Day 3, 150 mg/kg): 0 and 2 and 1
Daily arthritis score (Balb/c mice (CAIA model); Day 4, 150 mg/kg): 3 and 0 and 1 and 2
Daily arthritis score (Balb/c mice (CAIA model); Day 5, 150 mg/kg): 2 and 0 and 1 and 3
Daily arthritis score (Balb/c mice (CAIA model); Day 6, 150 mg/kg): 1 and 0 and 2 and 3
Daily arthritis score (Balb/c mice (CAIA model); Day 7, 150 mg/kg): 0 and 2 and 3 and 1
effect on arthritis clinical score (Balb/c mice (CAIA model); UCB-9260 150 mg/kg po bid from 6 h after LPS): significant reduction of the clinical score
CD45+ GR-1+ cells/mL in the peritoneal cavity (TNF [3]; 10mg/kg): 80382.4 cells/mL and 68398.8 cells/mL and 97517.0 cells/mL and 65083.3 cells/mL and 43379.0 cells/mL and 51529.8 cells/mL
CD45+ GR-1+ cells/mL in the peritoneal cavity (TNF [3]; 30mg/kg): 12661.4 cells/mL and 54428.1 cells/mL and 25233.7 cells/mL and 91899.5 cells/mL and 50362.8 cells/mL and 37741.7 cells/mL
CD45+ GR-1+ cells/mL in the peritoneal cavity (TNF [3]; 100mg/kg): 14437.1 cells/mL and 19826.5 cells/mL and 38381.4 cells/mL and 4238.2 cells/mL and 19466.7 cells/mL and 51556.6 cells/mL and 16326.3 cells/mL and 11513.0 cells/mL
CD45+ GR-1+ cells/mL in the peritoneal cavity (TNF [3]; 300mg/kg): 3894.3 cells/mL and 4438.0 cells/mL and 8909.7 cells/mL and 7748.4 cells/mL and 19700.6 cells/mL and 11113.9 cells/mL
dose with significant inhibition of neutrophil recruitment (TNF [3]; oral, human TNF i.p., CD45+GR1+ cells): 30 mg/kg
fraction unbound (Mouse free fraction): 0.024
Kd (TNF [4]): 13 nM
